The results in this text go back to ChEMBL document CHEMBL5291721, “A preclinical secondary pharmacology resource illuminates target-adverse drug reaction associations of marketed drugs” (Nat Commun, 2023).

Assay [1] deals with T1, Estrogen receptor (Homo sapiens, UniProt P03372).
T1 sequence (P03372 whole entry): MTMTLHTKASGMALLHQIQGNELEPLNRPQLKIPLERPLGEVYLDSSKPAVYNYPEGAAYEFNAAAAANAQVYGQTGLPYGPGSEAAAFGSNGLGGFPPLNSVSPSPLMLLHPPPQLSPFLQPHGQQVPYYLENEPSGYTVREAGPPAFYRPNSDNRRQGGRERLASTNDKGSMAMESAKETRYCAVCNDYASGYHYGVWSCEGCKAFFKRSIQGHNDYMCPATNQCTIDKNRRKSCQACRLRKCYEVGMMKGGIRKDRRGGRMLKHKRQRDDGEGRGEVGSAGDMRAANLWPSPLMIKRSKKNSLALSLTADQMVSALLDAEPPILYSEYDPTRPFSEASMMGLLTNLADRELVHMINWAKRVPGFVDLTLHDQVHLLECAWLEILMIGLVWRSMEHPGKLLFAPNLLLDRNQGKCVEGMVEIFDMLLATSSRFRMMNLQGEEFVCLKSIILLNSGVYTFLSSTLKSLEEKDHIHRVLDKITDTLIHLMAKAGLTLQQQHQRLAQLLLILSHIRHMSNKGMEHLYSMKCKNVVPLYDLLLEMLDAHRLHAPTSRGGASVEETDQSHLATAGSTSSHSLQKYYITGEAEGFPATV

Assay [2] has as its target Voltage-dependent L-type calcium channel subunit alpha-1C (Rattus norvegicus, UniProt P22002). The assay is classed as functional.
Assay [3] concerns the target 5-hydroxytryptamine receptor 2B (Homo sapiens, UniProt P41595). The assay is classed as functional, cell-based.
Assay [4] has as its target T2, 5-hydroxytryptamine receptor 1A (Homo sapiens, UniProt P08908).
T2 sequence (P08908 whole entry): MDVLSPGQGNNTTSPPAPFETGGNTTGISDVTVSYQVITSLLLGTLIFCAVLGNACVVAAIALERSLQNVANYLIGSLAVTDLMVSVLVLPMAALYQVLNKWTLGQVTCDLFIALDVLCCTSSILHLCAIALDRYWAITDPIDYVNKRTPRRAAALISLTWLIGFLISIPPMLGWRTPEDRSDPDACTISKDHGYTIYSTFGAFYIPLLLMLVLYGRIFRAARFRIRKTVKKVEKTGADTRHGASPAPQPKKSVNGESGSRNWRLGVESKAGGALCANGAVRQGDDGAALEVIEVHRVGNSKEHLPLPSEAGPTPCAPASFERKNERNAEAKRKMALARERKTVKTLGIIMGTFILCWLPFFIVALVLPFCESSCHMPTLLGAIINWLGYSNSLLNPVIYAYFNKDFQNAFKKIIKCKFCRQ
The assay is classed as functional, cell-based.

Assay [5] addresses T3, Alpha-2A adrenergic receptor (Homo sapiens, UniProt P08913).
T3 sequence (P08913 whole entry): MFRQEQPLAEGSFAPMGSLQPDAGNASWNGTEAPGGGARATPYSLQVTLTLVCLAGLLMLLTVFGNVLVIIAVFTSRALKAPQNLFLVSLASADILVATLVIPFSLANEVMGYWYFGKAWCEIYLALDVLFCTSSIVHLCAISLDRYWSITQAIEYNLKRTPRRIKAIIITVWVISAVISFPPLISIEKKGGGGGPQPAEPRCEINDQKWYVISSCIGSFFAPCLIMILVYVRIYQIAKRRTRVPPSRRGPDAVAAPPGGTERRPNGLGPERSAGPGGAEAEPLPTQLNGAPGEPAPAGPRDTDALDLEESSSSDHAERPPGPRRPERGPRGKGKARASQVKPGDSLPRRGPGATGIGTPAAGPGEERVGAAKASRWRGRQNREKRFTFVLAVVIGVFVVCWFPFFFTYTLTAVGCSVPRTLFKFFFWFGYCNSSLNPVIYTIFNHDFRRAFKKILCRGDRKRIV
The assay is classed as functional, cell-based.

Assay [6] deals with T4, Alpha-2C adrenergic receptor (Homo sapiens, UniProt P18825).
T4 sequence (P18825 whole entry): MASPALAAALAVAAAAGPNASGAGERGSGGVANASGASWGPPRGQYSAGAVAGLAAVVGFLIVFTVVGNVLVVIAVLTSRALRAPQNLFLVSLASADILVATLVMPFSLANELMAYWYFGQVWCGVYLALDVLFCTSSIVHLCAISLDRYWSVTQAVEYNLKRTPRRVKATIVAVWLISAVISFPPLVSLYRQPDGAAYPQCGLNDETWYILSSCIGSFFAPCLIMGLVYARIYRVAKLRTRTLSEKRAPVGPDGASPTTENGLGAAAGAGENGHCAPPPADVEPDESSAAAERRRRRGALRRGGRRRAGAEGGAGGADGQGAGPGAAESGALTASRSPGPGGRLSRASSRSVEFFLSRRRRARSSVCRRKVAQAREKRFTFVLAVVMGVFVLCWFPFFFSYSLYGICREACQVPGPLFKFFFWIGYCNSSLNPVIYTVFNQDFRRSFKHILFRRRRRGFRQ
The assay is classed as functional.

For assay [7], the target named is T5, Progesterone receptor (Homo sapiens, UniProt P06401).
T5 sequence (P06401 whole entry): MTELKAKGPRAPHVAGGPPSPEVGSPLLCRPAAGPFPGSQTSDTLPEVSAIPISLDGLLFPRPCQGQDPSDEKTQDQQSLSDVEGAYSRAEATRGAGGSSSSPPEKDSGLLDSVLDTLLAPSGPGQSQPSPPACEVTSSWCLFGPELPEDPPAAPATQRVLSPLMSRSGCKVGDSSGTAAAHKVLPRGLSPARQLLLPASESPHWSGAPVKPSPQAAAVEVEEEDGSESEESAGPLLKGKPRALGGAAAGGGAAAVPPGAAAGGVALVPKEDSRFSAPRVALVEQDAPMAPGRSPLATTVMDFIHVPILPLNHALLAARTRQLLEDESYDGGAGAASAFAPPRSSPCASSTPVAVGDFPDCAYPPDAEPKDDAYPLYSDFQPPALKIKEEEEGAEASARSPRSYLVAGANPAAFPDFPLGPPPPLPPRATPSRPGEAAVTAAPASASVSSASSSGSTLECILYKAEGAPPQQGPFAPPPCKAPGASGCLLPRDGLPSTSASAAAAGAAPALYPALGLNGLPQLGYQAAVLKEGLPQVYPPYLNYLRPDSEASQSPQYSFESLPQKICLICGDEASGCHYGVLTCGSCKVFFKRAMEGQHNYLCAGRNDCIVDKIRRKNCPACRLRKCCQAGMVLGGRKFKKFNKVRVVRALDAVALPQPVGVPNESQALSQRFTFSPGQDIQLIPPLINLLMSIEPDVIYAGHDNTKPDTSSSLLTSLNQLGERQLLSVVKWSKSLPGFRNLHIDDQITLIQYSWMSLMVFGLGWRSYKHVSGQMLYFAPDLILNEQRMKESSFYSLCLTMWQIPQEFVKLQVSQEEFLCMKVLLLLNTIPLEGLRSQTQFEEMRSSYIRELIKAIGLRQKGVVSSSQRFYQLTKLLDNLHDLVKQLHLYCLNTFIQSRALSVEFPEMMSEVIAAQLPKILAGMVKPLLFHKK
The assay is classed as functional.
Also: assay procedure not described here.

Sequence of Voltage-dependent L-type calcium channel subunit alpha-1C (P22002 whole entry): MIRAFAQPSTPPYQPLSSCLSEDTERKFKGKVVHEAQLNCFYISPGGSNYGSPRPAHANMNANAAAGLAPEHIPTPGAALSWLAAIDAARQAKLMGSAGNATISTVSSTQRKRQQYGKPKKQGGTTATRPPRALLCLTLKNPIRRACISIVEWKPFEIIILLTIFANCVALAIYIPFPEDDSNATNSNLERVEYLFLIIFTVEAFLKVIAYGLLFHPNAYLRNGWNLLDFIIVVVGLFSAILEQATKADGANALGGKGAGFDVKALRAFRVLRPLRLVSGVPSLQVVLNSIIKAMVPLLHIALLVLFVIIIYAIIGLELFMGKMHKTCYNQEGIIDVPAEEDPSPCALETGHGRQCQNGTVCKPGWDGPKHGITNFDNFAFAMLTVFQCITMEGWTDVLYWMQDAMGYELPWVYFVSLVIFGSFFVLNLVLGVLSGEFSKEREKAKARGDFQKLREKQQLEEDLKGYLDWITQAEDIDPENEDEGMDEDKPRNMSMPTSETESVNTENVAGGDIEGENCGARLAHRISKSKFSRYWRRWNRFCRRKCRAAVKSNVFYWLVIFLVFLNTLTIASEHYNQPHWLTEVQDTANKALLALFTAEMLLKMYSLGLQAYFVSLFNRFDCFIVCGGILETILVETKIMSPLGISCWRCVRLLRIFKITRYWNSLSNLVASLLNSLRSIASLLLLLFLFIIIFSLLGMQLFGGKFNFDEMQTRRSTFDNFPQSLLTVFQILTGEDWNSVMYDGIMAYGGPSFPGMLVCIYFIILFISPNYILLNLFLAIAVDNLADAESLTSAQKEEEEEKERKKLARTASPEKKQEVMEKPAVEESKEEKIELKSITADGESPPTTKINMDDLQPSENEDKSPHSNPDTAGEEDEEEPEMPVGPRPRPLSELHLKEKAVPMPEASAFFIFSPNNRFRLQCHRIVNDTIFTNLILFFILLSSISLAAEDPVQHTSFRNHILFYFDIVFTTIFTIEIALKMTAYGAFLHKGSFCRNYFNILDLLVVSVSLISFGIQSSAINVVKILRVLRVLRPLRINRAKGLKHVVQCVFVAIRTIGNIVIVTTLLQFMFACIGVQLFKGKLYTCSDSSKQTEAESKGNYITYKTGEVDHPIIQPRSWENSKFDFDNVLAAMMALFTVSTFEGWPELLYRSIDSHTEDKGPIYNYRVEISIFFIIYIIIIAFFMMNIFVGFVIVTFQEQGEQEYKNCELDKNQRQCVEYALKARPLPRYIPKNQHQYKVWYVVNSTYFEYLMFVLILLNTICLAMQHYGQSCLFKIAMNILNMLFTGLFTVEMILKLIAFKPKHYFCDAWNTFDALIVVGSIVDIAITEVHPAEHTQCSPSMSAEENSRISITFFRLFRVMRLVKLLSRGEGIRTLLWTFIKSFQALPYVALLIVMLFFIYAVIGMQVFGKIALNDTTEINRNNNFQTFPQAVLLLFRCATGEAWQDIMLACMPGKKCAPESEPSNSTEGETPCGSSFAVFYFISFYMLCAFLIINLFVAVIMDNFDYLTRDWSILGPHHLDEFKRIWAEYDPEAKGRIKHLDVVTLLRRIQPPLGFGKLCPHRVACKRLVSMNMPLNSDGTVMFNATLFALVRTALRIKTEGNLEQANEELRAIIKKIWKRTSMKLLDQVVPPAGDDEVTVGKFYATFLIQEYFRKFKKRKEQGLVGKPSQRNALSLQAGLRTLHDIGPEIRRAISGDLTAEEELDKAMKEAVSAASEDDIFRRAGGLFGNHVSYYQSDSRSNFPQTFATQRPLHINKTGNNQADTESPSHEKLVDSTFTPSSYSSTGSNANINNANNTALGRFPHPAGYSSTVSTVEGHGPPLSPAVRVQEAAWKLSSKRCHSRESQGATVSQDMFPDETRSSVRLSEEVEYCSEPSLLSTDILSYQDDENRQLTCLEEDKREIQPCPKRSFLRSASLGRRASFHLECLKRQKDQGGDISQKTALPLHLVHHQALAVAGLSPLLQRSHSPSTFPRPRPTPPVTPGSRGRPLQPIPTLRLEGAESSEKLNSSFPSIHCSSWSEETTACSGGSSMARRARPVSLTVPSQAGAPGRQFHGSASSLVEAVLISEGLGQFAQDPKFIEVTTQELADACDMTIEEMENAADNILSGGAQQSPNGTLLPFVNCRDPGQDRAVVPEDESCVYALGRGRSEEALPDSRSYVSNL
Sequence of 5-hydroxytryptamine receptor 2B (P41595 whole entry): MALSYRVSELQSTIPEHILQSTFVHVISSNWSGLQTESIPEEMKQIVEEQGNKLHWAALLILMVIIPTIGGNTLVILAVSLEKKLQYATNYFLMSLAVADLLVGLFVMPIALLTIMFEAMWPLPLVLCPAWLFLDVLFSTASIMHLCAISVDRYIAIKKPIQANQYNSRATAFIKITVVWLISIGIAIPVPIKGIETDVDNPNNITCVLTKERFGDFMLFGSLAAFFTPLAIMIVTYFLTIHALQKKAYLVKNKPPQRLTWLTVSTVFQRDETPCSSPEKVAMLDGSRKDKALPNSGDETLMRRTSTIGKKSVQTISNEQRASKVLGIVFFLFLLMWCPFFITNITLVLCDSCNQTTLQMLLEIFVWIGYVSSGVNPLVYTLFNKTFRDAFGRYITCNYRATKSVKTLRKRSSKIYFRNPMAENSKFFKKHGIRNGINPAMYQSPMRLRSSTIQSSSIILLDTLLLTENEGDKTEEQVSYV

In general, AC50 refers to the midpoint of the concentration-response curve, whichever way the signal moves. Consider HYDROXOCOBALAMIN, for which the AC50 is > 30 µM in assay [1]; > 30 µM in assay [2]; > 30 µM in assay [3]; > 30 µM in assay [4]; > 30 µM in assay [5]; 20 µM in assay [6]. Besides, in assay [7], the AC50 is > 30 µM.
